# Like-named read-outs stand apart in the source and are kept apart here.
# Columns and labels:
# [1] = tested on: Capan-1 cells (K-Ras G12V); experiment: CellTiter-Glo cell viability, Capan-1; format: cell-based, human; settings: K-Ras G12V, 5-day treatment, read-out: Capan-1 Cell Viability IC50
# Protocol: Note—The following protocol describes a procedure for monitoring cell viability of K-Ras mutant cancer cell lines in response to a compound of the invention. Other RAS isoforms may be employed, though the number of cells to be seeded will vary based on cell line used.
# Test compounds (132.5 nl) were directly dispensed into the assay plates containing cells. […] On day 5, assay plates and their contents were equilibrated to room temperature for approximately 30 minutes. […] Luminescence was measured using the PerkinElmer Enspire. Data were normalized by the following: (Sample signal/Avg. DMSO)*100. The data were fit using a four-parameter logistic fit.
# [2] = tested on: K-Ras G12C (NCI-H358 cells); experiment: Potency assay: pERK in NCI-H358 cells; format: cell-based, human; settings: Homo sapiens; NCI-H358 cells, 4 hours; read-out: pERK EC50 (H358 KRAS G12C)
# Procedure, shortened: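 Cells plated the day before were exposed for 4 h at 37° C, 5% CO2 to a 10-point, 3-fold DMSO dilution series (10 mM top stock), in duplicate. Phospho-ERK was read by AlphaLISA SureFire Ultra or by In-Cell Western with DRAQ5 DNA stain, and IC50 came from a 4-parameter sigmoidal fit.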
Structure (SMILES),"IC50 ([1]; Homo sapiens, CAPAN-1, 120 h) [nM]",EC50 [2] [nM],IC50 [1] [nM]
CCn1c(-c2cccnc2[C@H](C)OC)c2c3cc(ccc31)-c1cc(O)cc(c1)C[C@H](NC(=O)[C@H](C(C)C)N(C)C(=O)[C@H]1CCN(C(=O)OC)C1)C(=O)N1CCC[C@H](N1)C(=O)OCC(C)(C)C2 [Compound A3],10 to 100,< 5000,
CCn1c(-c2cccnc2[C@H](C)OC)c2c3cc(ccc31)-c1cc(O)cc(c1)C[C@H](NC(=O)[C@@H]1C[C@H]1C)C(=O)N1CCC[C@H](N1)C(=O)OCC(C)(C)C2 [Compound A183],1000 to 10000,,
CCn1c(-c2cccnc2[C@H](C)OC)c2c3cc(ccc31)-c1cc(O)cc(c1)C[C@H](NS(=O)(=O)N1CCN(C)CC1)C(=O)N1CCC[C@H](N1)C(=O)OCC(C)(C)C2 [Compound A193],> 10000,,
CCn1c(-c2cccnc2[C@H](C)OC)c2c3cc(ccc31)-c1csc(n1)C[C@H](NC(=O)[C@H](C(C)C)N(C)C(=O)N1CC([C@H](C)OC)C1)C(=O)N1CCC[C@H](N1)C(=O)OCC(C)(C)C2 [Compound A279],10 to 100,,
CCn1c(-c2cc(N3CCN(C)CC3)cnc2[C@H](C)OC)c2c3cc(ccc31)-c1csc(n1)C[C@H](NC(C)=O)C(=O)N1CCC[C@H](N1)C(=O)OCC(C)(C)C2 [Compound A321],,< 5000,100 to 1000
CCn1c(-c2cc(N3CCN(C)CC3)cnc2[C@H](C)OC)c2c3cc(ccc31)-c1csc(n1)C[C@H](NC(C)=O)C(=O)N1CCC[C@H](N1)C(=O)OCC(C)(C)C2 [Compound A340],,,> 10000
CCn1c(-c2cccnc2[C@H](C)OC)c2c3cc(ccc31)-c1csc(n1)C[C@H](NC(=O)[C@H](C(C)C)N(C)C(=O)N1CC[C@]13CCCNC3)C(=O)N1CCC[C@H](N1)C(=O)OCC(C)(C)C2 [Compound A434],1000 to 10000,,
CCn1c(-c2cccnc2[C@H](C)OC)c2c3cc(ccc31)-c1csc(n1)C[C@H](NC(=O)[C@H](C(C)C)N(C)C(=O)N1CC3CCN(C)CC31)C(=O)N1CCC[C@H](N1)C(=O)OCC(C)(C)C2 (stereo partly drawn) [Compound A539],100 to 1000,< 5000,
CCn1c(-c2cccnc2[C@H](C)OC)c2c3cc(ccc31)-c1csc(n1)C[C@H](NC(=O)[C@H](C(C)C)N(C)C(=O)N1CCN3CCOC[C@@H]3C1)C(=O)N1CCC[C@H](N1)C(=O)OCC(C)(C)C2 [Compound A547],10 to 100,,

# Reference: patent US20250195521A1 (Revolution Medicines, Inc., priority 2020, published 2025)
